How the values were obtained:
plasmin = biological target: T1, plasmin (Homo sapiens, UniProt P00747); test: Amidolytic activity of plasmin (substrate S-2251); type: biochemical; details: maximum concentration 20 mM
T1 construct: The amino-terminal heavy chain of PL consists of five kringle domains; The C-terminal light chain of plasmin is a typical serine protease (SP); purchased Chromogenix (Milano, Italy)
Experimental: (§1) Determination of amidolytic activity was performed as previously described by (Okada et al. [1988]). Buffer and 0.1 ml of enzyme solution was added to 0.2 ml of examined compound dissolved in 0.15 M NaCl (1–15) (as control 0.15 M NaCl). The buffer and the enzyme solution included: • tris buffer—0.6 ml (pH 8.8), enzyme: urokinase (50 units/ml), synthetic substrate: S-2444 (0.1 ml, 3 mM); • tris buffer—0.5 ml (pH 8.4), enzyme: thrombin (1 units/ml), synthetic substrate: S-2238 (0.2 ml, 0.75 mM); • tris buffer—0.5 ml (pH 7.4), enzyme: plasmin (0.4 units/ml), synthetic substrate: S-2251 (0.2 ml, 3 mM); • […]—0.5 ml (pH 7.5), enzyme: trypsin (0.4 units/ml), synthetic substrate: Bzl-L-Arg–pNA.HCl (0.2 ml, 8 mM); • tris buffer—0.6 ml (pH 9.0), enzyme: kallikrein (3 units/ml), synthetic substrate: S-2266 (0.1 ml, 75 mM); • tris buffer—0.6 ml (pH 8.4), enzyme: t-PA ([…]), synthetic substrate: S-2288 (0.1 ml, 10 mM).
(§2) IC50 values were determined (IC50, Inhibitor Concentration, the concentration at which enzyme activity is inhibited by 50 %). Our results were compared with the 6-aminohexanoic acid.

thrombin = biological target: T2, thrombin (Bos taurus, UniProt P00735); test: Amidolytic activity of thrombin (substrate S-2238); type: biochemical; details: maximum concentration 20 mM
T2 construct: purchased Lubelska Wytwórnia Szczepionek (Lublin, Poland)
Experimental: as §1, §2

tPA = biological target: T3, tPA (Homo sapiens, UniProt P00750); test: Amidolytic activity of t-PA (substrate S-2288); type: biochemical; details: maximum concentration 20 mM
T3 construct: purchased Boehringer Ingelheim GmbH (Ingelheim, Germany)
Experimental: as §1, §2

uPA = biological target: T4, uPA (Homo sapiens, UniProt P00749); test: Amidolytic activity of urokinase (substrate S-2444); type: biochemical; details: maximum concentration 20 mM
T4 construct: purchased Sigma (Schnelldorf, Germany)
Experimental: as §1, §2

trypsin = test: Amidolytic activity of trypsin (substrate Bzl-L-Arg-pNA); type: biochemical; details: maximum concentration 20 mM
Experimental: as §1, §2

kallikrein = test: Amidolytic activity of kallikrein (substrate S-2266); type: biochemical; details: maximum concentration 20 mM, S-2266, pH 9.0
Experimental: as §1, §2

[1] = system: fibrinolysis in whole blood; test: Thromboelastometric (ROTEM) analysis of clot formation and fibrinolysis in whole blood; design: species or system human
Experimental: Five healthy volunteers, men (age range: 25–34 years)) with normal blood cell counts were entered into the study. Healthy volunteers had not taken medication known to affect platelet function and/or coagulation for at least 10 days before blood sampling.
Blood was stored at room temperature for 30 min after venipuncture and then was evaluated by thromboelastometric analyses.
Thromboelastometric measurements were performed using ROTEM system (Tem International GmbH, Manheim, Germany). […] We measured the parameters characterized kinetic of clot formation (clotting time, alpha angle), clot strength (maximal clot firmness; MCF), and fibrinolysis (percentage reduction of MCF, clot lysis time).

MCF-7 cells = test: Cytotoxicity assay (method of Plumb et al.); type: cell-based; details: 10, 100, 250, 500 and 1000 μM
Experimental: (§3) All studies were performed on MCF-7, MDA-MB-231 and DLD cells lines were purchased from American Type Culture Collection (Rockville, MD). The cells were maintained in DMEM supplemented with 5 % fetal bovine serum (FBS), […] glutamine, 50 U/ml penicillin, […] streptomycin at 37 °C in a 5 % CO2 incubator.
(§4) The toxicity of the evaluated peptides was determined by the method of Plumb et al. ([1989]) in 10, 100, 250, 500 and 1000 μM concentrations. MCF-7, MDA-MB-231 and DLD cells were maintained as described above. The detailed description of the method is given by (Markowska et al. [2013]).

MDA-MB-231 cells = test: Cytotoxicity assay (method of Plumb et al.); type: cell-based; details: 10, 100, 250, 500 and 1000 μM
Experimental: as §3, §4

[2] = system: colon cancer cell line DLD-1; test: Cytotoxicity assay (method of Plumb et al.); type: cell-based; details: 10, 100, 250, 500 and 1000 μM
Experimental: as §3, §4

fibroblast cells = test: Cytotoxicity assay, normal cells; type: cell-based
[3] = recalcified human whole blood, 140 ng/ml TF, 125 ng/ml tPA

T3 sequence (P00750 36-562): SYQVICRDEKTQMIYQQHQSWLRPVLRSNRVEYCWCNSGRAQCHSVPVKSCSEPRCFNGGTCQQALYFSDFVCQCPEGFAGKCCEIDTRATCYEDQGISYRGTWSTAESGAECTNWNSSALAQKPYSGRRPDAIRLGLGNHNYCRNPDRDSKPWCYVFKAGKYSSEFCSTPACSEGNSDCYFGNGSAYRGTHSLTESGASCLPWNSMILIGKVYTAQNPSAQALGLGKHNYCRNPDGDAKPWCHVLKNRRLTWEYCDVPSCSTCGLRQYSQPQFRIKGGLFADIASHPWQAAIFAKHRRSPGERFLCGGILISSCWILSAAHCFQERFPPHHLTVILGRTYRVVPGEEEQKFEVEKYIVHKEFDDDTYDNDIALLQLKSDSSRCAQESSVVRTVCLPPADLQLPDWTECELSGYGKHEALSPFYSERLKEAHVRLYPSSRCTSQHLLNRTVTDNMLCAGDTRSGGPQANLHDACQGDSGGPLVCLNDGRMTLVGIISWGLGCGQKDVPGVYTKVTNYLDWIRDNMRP
T1 sequence (P00747 97-580 limits assumed): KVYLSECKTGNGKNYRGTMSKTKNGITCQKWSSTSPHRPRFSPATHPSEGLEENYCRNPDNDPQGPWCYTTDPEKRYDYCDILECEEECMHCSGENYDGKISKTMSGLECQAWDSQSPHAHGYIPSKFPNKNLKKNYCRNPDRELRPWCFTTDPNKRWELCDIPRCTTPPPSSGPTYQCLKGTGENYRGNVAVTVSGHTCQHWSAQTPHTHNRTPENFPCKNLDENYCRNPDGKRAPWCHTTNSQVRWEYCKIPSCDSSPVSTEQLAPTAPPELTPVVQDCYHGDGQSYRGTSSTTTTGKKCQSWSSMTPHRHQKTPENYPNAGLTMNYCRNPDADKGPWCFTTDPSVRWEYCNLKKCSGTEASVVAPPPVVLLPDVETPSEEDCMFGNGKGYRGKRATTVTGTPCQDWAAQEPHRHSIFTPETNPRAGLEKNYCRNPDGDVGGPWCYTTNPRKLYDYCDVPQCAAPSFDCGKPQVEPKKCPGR
T1 sequence (P00747 581-810 limits assumed): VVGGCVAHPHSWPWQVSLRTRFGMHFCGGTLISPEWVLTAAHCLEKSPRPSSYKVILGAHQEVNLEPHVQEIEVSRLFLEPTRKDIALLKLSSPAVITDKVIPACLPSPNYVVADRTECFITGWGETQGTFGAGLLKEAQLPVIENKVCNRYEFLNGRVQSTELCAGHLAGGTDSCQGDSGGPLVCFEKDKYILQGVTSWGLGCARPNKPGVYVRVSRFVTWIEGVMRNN

Compound: NCCCCCC(=O)O [EACA, 6-aminohexanoic acid]
- effect on amidolytic activity of plasmin (in words) (plasmin): No effect
- effect on amidolytic activity of thrombin (in words) (thrombin): No effect
- effect on amidolytic activity of tPA (in words) (tPA): No effect
- effect on amidolytic activity of uPA (in words) (uPA): No effect
- effect on amidolytic activity of trypsin (in words) (trypsin): No effect
- influence on the enzymatic activity of kallikrein (kallikrein): No effect
- clotting time (CT, coagulation time) ([1]; human whole blood, control 174 s): 137 s
- lysis of the clot in 45 min (from LI45) ([1]; human whole blood, whole blood alone about 61 %): 1%
- LOT lysis onset time (clot amplitude reduced by 15 %) [1, 3]: ≥4084 s
- LT lysis time (clot reduced/lysed by 90 %) [1, 3]: ≥168 min
- LI30 lysis index, amplitude of clot after 30 min ([1]; recalcified human whole blood, TF + tPA, 30 min): 100%
- LI45 lysis index, amplitude of clot after 45 min ([1]; recalcified human whole blood, TF + tPA, 45 min): 98%
- LI60 lysis index, amplitude of clot after 60 min ([1]; recalcified human whole blood, TF + tPA, 60 min): 92%
- cytotoxic effect / viability of MCF-7 cells (MCF-7 cells): did not display cytotoxicity
- cytotoxic effect / viability of MDA-MB-231 cells (MDA-MB-231 cells): did not display cytotoxicity
- cytotoxic effect / viability of DLD-1 cells [2]: did not display cytotoxicity
- cytotoxic effect / viability of fibroblast cells (fibroblast cells): did not display cytotoxicity

Reference: paper PMC5401710, “Peptides with 6-Aminohexanoic Acid: Synthesis and Evaluation as Plasmin Inhibitors” (International Journal of Peptide Research and Therapeutics, 2016)
